Active and inactive are the calls of the source. The calls are words filed in the database; no cut-off is given here.
What was measured:
[1] = target: T1, Estrogen receptor (Rattus norvegicus) (UniProt P06211); test: Displacement of [3H]estradiol from estrogen receptor in uterine cytosol of estradiol primed rat relative to estradiol; conditions: Uterus
T1 sequence (whole entry): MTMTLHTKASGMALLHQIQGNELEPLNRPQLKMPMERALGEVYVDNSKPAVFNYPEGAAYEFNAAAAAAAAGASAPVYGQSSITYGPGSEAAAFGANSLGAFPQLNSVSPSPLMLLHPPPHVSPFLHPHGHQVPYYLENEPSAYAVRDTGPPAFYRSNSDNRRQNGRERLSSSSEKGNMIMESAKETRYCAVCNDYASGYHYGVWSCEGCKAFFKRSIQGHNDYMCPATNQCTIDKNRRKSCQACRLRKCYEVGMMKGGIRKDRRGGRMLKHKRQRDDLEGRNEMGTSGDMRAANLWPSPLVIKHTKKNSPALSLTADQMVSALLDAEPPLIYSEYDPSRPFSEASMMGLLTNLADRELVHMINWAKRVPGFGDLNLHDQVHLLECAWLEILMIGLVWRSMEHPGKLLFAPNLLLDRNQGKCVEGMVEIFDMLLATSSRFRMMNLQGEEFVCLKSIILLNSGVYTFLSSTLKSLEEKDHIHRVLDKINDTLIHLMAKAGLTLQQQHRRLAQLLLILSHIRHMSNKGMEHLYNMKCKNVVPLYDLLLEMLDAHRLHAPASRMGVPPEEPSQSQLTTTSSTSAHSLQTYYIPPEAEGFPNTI

[2] = tested on: Rattus norvegicus; test: Estrogenic activity in ovariectomised Sprague-Dawley rat assessed as uterine weight gain at 10 mg/kg, po once daily for three days after 24 hrs of last treatment relative to control; type: functional
[3] = tested on: Rattus norvegicus; test: Antiimplantation activity in Sprague-Dawley rat uterus at 10 mg/kg, po for 7 days measured on day 11; type: functional
[4] = tested on: Rattus norvegicus; test: Antiestrogenic activity in ovariectomised Sprague-Dawley rat assessed as inhibition of estradiol-induced uterine weight at 10 mg/kg, po once daily for three days measured on day 4 relative to control; type: functional
[5] = tested on: Rattus norvegicus; test: Antiimplantation activity in Sprague-Dawley rat uterus at 5 mg/kg, po for 7 days measured on day 11; type: functional

c1ccc2c(c1)SCCc1c-2n(CCc2nnnn2CCN2CCCC2)c2ccccc12
RBA [1]: < 0.001%
Activity [2]: 39%
Activity [3]: inactive

c1ccc2c(c1)SCCc1c-2n(CCc2nnnn2CCN2CCCCC2)c2ccccc12
RBA [1]: < 0.001%
Activity [2]: 23%
inhibition in vivo at 10 mg/kg [4]: 2%
Activity [3]: inactive

c1ccc2c(c1)OCCc1c-2n(CCc2nnnn2CCN2CCCC2)c2ccccc12
RBA [1]: < 0.001%
Activity [2]: 40%
Activity [3]: inactive

c1ccc2c(c1)OCCc1c-2n(CCc2nnn(CCN3CCCC3)n2)c2ccccc12
RBA [1]: 0.04%
Activity [2]: 29%
inhibition in vivo at 10 mg/kg [4]: 12%
Activity [3]: inactive

c1ccc2c(c1)SCCc1c-2n(CCc2nnn(CCN3CCCCC3)n2)c2ccccc12
RBA [1]: 0.0125%
inhibition in vivo at 10 mg/kg [4]: 6%
Activity [3]: inactive

c1ccc2c(c1)CCCc1c-2n(CCc2nnn(CCN3CCCC3)n2)c2ccccc12
Activity [5]: 67%
RBA [1]: 0.16%
Activity [2]: 33%
inhibition in vivo at 10 mg/kg [4]: 3%
Activity [3]: 100%

c1ccc2c(c1)CCCc1c-2n(CCc2nnnn2CCN2CCCC2)c2ccccc12
RBA [1]: 0.0125%
Activity [2]: 61%
inhibition in vivo at 10 mg/kg [4]: 7%
Activity [3]: 67%

c1ccc2c(c1)CCCc1c-2n(CCc2nnnn2CCN2CCCCC2)c2ccccc12
RBA [1]: < 0.001%
Activity [2]: 40%
Activity [3]: inactive

c1ccc2c(c1)OCCc1c-2n(CCc2nnn(CCN3CCCCC3)n2)c2ccccc12
RBA [1]: 0.011%
Activity [2]: 28%
Activity [3]: inactive

c1ccc2c(c1)SCCc1c-2n(CCc2nnn(CCN3CCCC3)n2)c2ccccc12
RBA [1]: < 0.001%
Activity [2]: 25%
inhibition in vivo at 10 mg/kg [4]: 1%
Activity [3]: inactive

c1ccc2c(c1)CCCc1c-2n(CCc2nnn(CCN3CCCCC3)n2)c2ccccc12
RBA [1]: 0.011%
Activity [3]: inactive

c1ccc2c(c1)OCCc1c-2n(CCc2nnnn2CCN2CCCCC2)c2ccccc12
RBA [1]: < 0.001%
Activity [2]: 44%
inhibition in vivo at 10 mg/kg [4]: 1%
Activity [3]: inactive

From ChEMBL document CHEMBL1158177, “Synthesis and structure guided evaluation of estrogen agonist and antagonist activities of some new tetrazolyl indole derivatives” (2008)
